# Test results: PubChem BioAssay (NCI)
#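 A five-concentration, 48-hour dose response in 96-well plates underlies each endpoint, interpolated linearly between surrounding concentrations. TGI is the concentration that stops growth completely.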
# Assays:
# Test in all cases: inhibition of tumour cell growth, NCI panel, 48 h
# NCI/ADR-RES ovarian = tested on: NCI/ADR-RES ovarian
# M14 melanoma = tested on: M14 melanoma
# SK-MEL-28 melanoma = tested on: SK-MEL-28 melanoma
# 786-0 renal = tested on: 786-0 renal
# K-562 leukemia = tested on: K-562 leukemia
# KM12 colon = tested on: KM12 colon
# SF-268 CNS = tested on: SF-268 CNS
# SF-539 CNS = tested on: SF-539 CNS
# UACC-257 melanoma = tested on: UACC-257 melanoma
# SNB-19 CNS = tested on: SNB-19 CNS
# OVCAR-5 ovarian = tested on: OVCAR-5 ovarian
# MDA-MB-231 breast = tested on: MDA-MB-231 breast
# CCRF-CEM leukemia = tested on: CCRF-CEM leukemia
# PC-3 prostate = tested on: PC-3 prostate
# IGROV1 ovarian = tested on: IGROV1 ovarian
# HL-60(TB) leukemia = tested on: HL-60(TB) leukemia
# HT29 colon = tested on: HT29 colon
# OVCAR-4 ovarian = tested on: OVCAR-4 ovarian
# BT-549 breast = tested on: BT-549 breast
# ACHN renal = tested on: ACHN renal
# TK-10 renal = tested on: TK-10 renal
# SR leukemia = tested on: SR leukemia
# NCI-H460 lung = tested on: NCI-H460 lung
# SK-MEL-2 melanoma = tested on: SK-MEL-2 melanoma
# COLO 205 colon = tested on: COLO 205 colon
# LOX IMVI melanoma = tested on: LOX IMVI melanoma
# MCF7 breast = tested on: MCF7 breast
# SF-295 CNS = tested on: SF-295 CNS
# A549 NSCLC = tested on: A549 NSCLC
# HCT-116 colon = tested on: HCT-116 colon
# HOP-62 NSCLC = tested on: HOP-62 NSCLC
# UO-31 renal = tested on: UO-31 renal
# SK-OV-3 ovarian = tested on: SK-OV-3 ovarian
# MALME-3M melanoma = tested on: MALME-3M melanoma
# A498 renal = tested on: A498 renal
# UACC-62 melanoma = tested on: UACC-62 melanoma
# CAKI-1 renal = tested on: CAKI-1 renal
# RXF 393 renal = tested on: RXF 393 renal
# NCI-H226 lung = tested on: NCI-H226 lung
# HOP-92 NSCLC = tested on: HOP-92 NSCLC
# HCC-2998 colon = tested on: HCC-2998 colon
# OVCAR-8 ovarian = tested on: OVCAR-8 ovarian
# MDA-N = tested on: MDA-N
# EKVX NSCLC = tested on: EKVX NSCLC
# HCT-15 colon = tested on: HCT-15 colon
# SN12C renal = tested on: SN12C renal
# SK-MEL-5 melanoma = tested on: SK-MEL-5 melanoma
# DU-145 prostate = tested on: DU-145 prostate
# HS 578T breast = tested on: HS 578T breast
# MOLT-4 leukemia = tested on: MOLT-4 leukemia
# SNB-75 CNS = tested on: SNB-75 CNS
# OVCAR-3 ovarian = tested on: OVCAR-3 ovarian
# NCI-H23 lung = tested on: NCI-H23 lung
# RPMI-8226 leukemia = tested on: RPMI-8226 leukemia
# NCI-H522 lung = tested on: NCI-H522 lung
# T-47D breast = tested on: T-47D breast
# MDA-MB-435 = tested on: MDA-MB-435
# SW-620 colon = tested on: SW-620 colon
# U251 CNS = tested on: U251 CNS
smiles,measurement,setting,value
COc1cc2cc(C(=O)N3CC(CCl)c4ccc(NCCN)cc43)[nH]c2c(OC)c1OC (stereo not drawn),TGI,NCI/ADR-RES ovarian,1.54 µM
same,TGI,M14 melanoma,0.716 µM
same,TGI,SK-MEL-28 melanoma,1.4 µM
same,TGI,786-0 renal,1.12 µM
same,TGI,K-562 leukemia,0.572 µM
same,TGI,KM12 colon,1.07 µM
same,TGI,SF-268 CNS,1.29 µM
same,TGI,SF-539 CNS,1.41 µM
same,TGI,UACC-257 melanoma,0.637 µM
same,TGI,SNB-19 CNS,3.13 µM
same,TGI,OVCAR-5 ovarian,6.03 µM
same,TGI,MDA-MB-231 breast,1.9 µM
same,TGI,CCRF-CEM leukemia,2.24 µM
same,TGI,PC-3 prostate,2.07 µM
same,TGI,IGROV1 ovarian,0.375 µM
same,TGI,HL-60(TB) leukemia,0.226 µM
same,TGI,HT29 colon,11.1 µM
same,TGI,OVCAR-4 ovarian,3.06 µM
same,TGI,BT-549 breast,1.94 µM
same,TGI,ACHN renal,0.768 µM
same,TGI,TK-10 renal,6.08 µM
same,TGI,SR leukemia,38.8 µM
same,TGI,NCI-H460 lung,4 µM
same,TGI,SK-MEL-2 melanoma,0.408 µM
same,TGI,COLO 205 colon,2.55 µM
same,TGI,LOX IMVI melanoma,0.881 µM
same,TGI,MCF7 breast,3.45 µM
same,TGI,SF-295 CNS,1.44 µM
same,TGI,A549 NSCLC,12.5 µM
same,TGI,HCT-116 colon,> 32.7 µM
same,TGI,HOP-62 NSCLC,0.645 µM
same,TGI,UO-31 renal,0.382 µM
same,TGI,SK-OV-3 ovarian,1.16 µM
same,TGI,MALME-3M melanoma,0.391 µM
same,TGI,A498 renal,0.339 µM
same,TGI,UACC-62 melanoma,0.35 µM
same,TGI,CAKI-1 renal,1 µM
same,TGI,RXF 393 renal,0.327 µM
same,TGI,NCI-H226 lung,1.76 µM
same,TGI,HOP-92 NSCLC,4 µM
same,TGI,HCC-2998 colon,0.709 µM
same,TGI,OVCAR-8 ovarian,2.77 µM
same,TGI,MDA-N,0.432 µM
same,TGI,EKVX NSCLC,6.1 µM
same,TGI,HCT-15 colon,4.33 µM
same,TGI,SN12C renal,2.42 µM
same,TGI,SK-MEL-5 melanoma,0.263 µM
same,TGI,DU-145 prostate,6.2 µM
same,TGI,HS 578T breast,3.37 µM
same,TGI,MOLT-4 leukemia,0.356 µM
same,TGI,SNB-75 CNS,0.571 µM
same,TGI,OVCAR-3 ovarian,0.579 µM
same,TGI,NCI-H23 lung,1.23 µM
same,TGI,RPMI-8226 leukemia,1.17 µM
same,TGI,NCI-H522 lung,0.542 µM
same,TGI,T-47D breast,5.19 µM
same,TGI,MDA-MB-435,0.706 µM
CCOC(=O)c1ccc(C(=O)/C(C#N)=C2\CCCN2)[nH]1,TGI,NCI/ADR-RES ovarian,> 100 µM
same,TGI,M14 melanoma,> 100 µM
same,TGI,SK-MEL-28 melanoma,> 100 µM
same,TGI,786-0 renal,> 100 µM
same,TGI,K-562 leukemia,> 100 µM
same,TGI,KM12 colon,> 100 µM
same,TGI,SF-268 CNS,> 100 µM
same,TGI,SF-539 CNS,> 100 µM
same,TGI,UACC-257 melanoma,> 100 µM
same,TGI,SNB-19 CNS,> 100 µM
same,TGI,OVCAR-5 ovarian,> 100 µM
same,TGI,SW-620 colon,> 100 µM
same,TGI,MDA-MB-231 breast,> 100 µM
same,TGI,CCRF-CEM leukemia,> 100 µM
same,TGI,PC-3 prostate,> 100 µM
same,TGI,IGROV1 ovarian,> 100 µM
same,TGI,HL-60(TB) leukemia,> 100 µM
same,TGI,HT29 colon,> 100 µM
same,TGI,OVCAR-4 ovarian,> 100 µM
same,TGI,BT-549 breast,> 100 µM
same,TGI,SR leukemia,84.5 µM
same,TGI,NCI-H460 lung,> 100 µM
same,TGI,SK-MEL-2 melanoma,> 100 µM
same,TGI,COLO 205 colon,> 100 µM
same,TGI,LOX IMVI melanoma,> 100 µM
same,TGI,MCF7 breast,> 100 µM
same,TGI,SF-295 CNS,> 100 µM
same,TGI,A549 NSCLC,> 100 µM
same,TGI,HCT-116 colon,> 100 µM
same,TGI,HOP-62 NSCLC,> 100 µM
same,TGI,UO-31 renal,> 100 µM
same,TGI,SK-OV-3 ovarian,> 100 µM
same,TGI,MALME-3M melanoma,> 100 µM
same,TGI,A498 renal,> 100 µM
same,TGI,U251 CNS,> 100 µM
same,TGI,UACC-62 melanoma,> 100 µM
same,TGI,CAKI-1 renal,> 100 µM
same,TGI,RXF 393 renal,> 100 µM
same,TGI,NCI-H226 lung,> 100 µM
same,TGI,HOP-92 NSCLC,> 100 µM
same,TGI,HCC-2998 colon,> 100 µM
same,TGI,OVCAR-8 ovarian,> 100 µM
same,TGI,MDA-N,> 100 µM
same,TGI,EKVX NSCLC,> 100 µM
same,TGI,HCT-15 colon,> 100 µM
same,TGI,SN12C renal,> 100 µM
same,TGI,SK-MEL-5 melanoma,> 100 µM
same,TGI,DU-145 prostate,> 100 µM
same,TGI,HS 578T breast,> 100 µM
same,TGI,MOLT-4 leukemia,> 100 µM
same,TGI,SNB-75 CNS,> 100 µM
same,TGI,OVCAR-3 ovarian,> 100 µM
same,TGI,NCI-H23 lung,> 100 µM
same,TGI,RPMI-8226 leukemia,> 100 µM
same,TGI,T-47D breast,> 100 µM
same,TGI,MDA-MB-435,> 100 µM
